From patent US5240714A, “Non-digoxin-like Na^+, K^+ -ATPase inhibitory factor” (priority 1989, dated 1993)

Test system: anti-digoxin antibody
Assay: digoxin radioimmunoassay (cross-reactivity with anti-digoxin antibody)
Type: binding
Settings: at the doses tested
Description: Radioimmunoassay. Generally, a digoxin antibody covalently bound to the inner surface of polypropylene tubes was used, obtained from Immunochem (USA). Digoxin standards and samples were diluted 1:2 in 1.5M Tris-ClH, pH 7.5. ^125 I-digoxin (2000 μCi/μg) was used.
As stated previously, this cross reaction is not a necessary criteria for HHIF. However, this method is used to follow and evaluate digoxin-like substances in the exemplary purification procedures. An RIA commercial kit was used, purchased from Immunochem. Digoxin standards and sample preparations were diluted 1:2 in 1.5M Tris-ClH, pH 7.5. Digoxin antibodies were covalently bound to the inner surface of polypropylene tubes. After a 30 min. incubation at 20° C., tubes with sample plus I^125 -digoxin unbound radioactivity are discarded and the tubes counted by […]. Values of DLA are calculated by extrapolating from the standard curve constructed on semilogarithmic paper with plots of B/B. vs. concentration.
A radioimmunoassay method based on charcoal separation using a commercial antibody elicited in rabbit against digoxin is also used as described by Smith, T. W., et al. "Determination Of Therapeutic And Toxic Serum Digoxin Concentrations By Radioimmunoassay." The New England J Med. 1969;1212-1216.

## C[C@@H]1O[C@@H](O[C@H]2C[C@@H](O)[C@]3(CO)[C@H]4[C@H](O)C[C@]5(C)[C@@H](C6=CC(=O)OC6)CC[C@]5(O)[C@@H]4CC[C@]3(O)C2)[C@H](O)[C@H](O)[C@H]1O [ouabain]
  cross-reactivity with anti-digoxin antibody (digoxin immunoreactivity): weakly cross-reacted
